Test results published in paper PMC5933261, “A phase 1 dose-escalation study of veliparib with bimonthly FOLFIRI in patients with advanced solid tumours” (British Journal of Cancer, 2018).

How the values were obtained:
[1] = test system: patients with advanced solid tumours; test: Treatment-emergent adverse events (NCI CTCAE version 4.0); format: in vivo, human
Source text: (§1) The sample size was based on clinical justification.

[2] = test system: advanced solid tumours; test: Exploratory efficacy: ORR (RECIST version 1.1), TTP, DOR; format: in vivo, human
Source text: as §1

[3] = veliparib plus FOLFIRI, Combined RP2D n = 31, all grades
[4] = veliparib plus FOLFIRI, Combined RP2D n = 31, grade 3/4
[5] = veliparib plus FOLFIRI, Part 1 n = 67, all grades
[6] = veliparib plus FOLFIRI, Part 1 n = 67, grade 3/4
[7] = veliparib plus FOLFIRI, Parts 2 and 3 n = 25, all grades
[8] = veliparib plus FOLFIRI, Parts 2 and 3 n = 25, grade 3/4
[9] = veliparib plus FOLFIRI, Total n = 92, all grades
[10] = veliparib plus FOLFIRI, Total n = 92, grade 3/4
[11] = veliparib plus FOLFIRI, all treated patients (92)
[12] = veliparib plus FOLFIRI, all treated patients (92), any grade

SMILES: C[C@]1(c2nc3c(C(N)=O)cccc3[nH]2)CCCN1 [veliparib, Veliparib]
- Patients with TEAEs that led to death within 30 days of the last veliparib dose ([1]; considered not related or probably not related to veliparib and FOLFIRI): Four
- Patients with a TEAE that led to death within 63 days after the last veliparib dose ([1]; disease progression, considered not related or probably not related): One
- TEAE Alopecia [1, 3]: 16 (51.6) n (%)
- TEAE Anaemia [1, 3]: 15 (48.3) n (%)
- TEAE Constipation [1, 3]: 9 (29.0) n (%)
- TEAE Decreased appetite [1, 3]: 7 (22.5) n (%)
- TEAE Diarrhoea [1, 3]: 17 (54.8) n (%)
- TEAE Fatigue [1, 3]: 13 (41.9) n (%)
- TEAE Nausea [1, 3]: 23 (74.1) n (%)
- TEAE Neutropenia [1, 3]: 25 (80.6) n (%)
- TEAE Vomiting [1, 3]: 14 (45.1) n (%)
- TEAE Alopecia [1, 4]: 0 (0.0) n (%)
- TEAE Anaemia [1, 4]: 5 (16.1) n (%)
- TEAE Constipation [1, 4]: 0 (0.0) n (%)
- TEAE Decreased appetite [1, 4]: 0 (0.0) n (%)
- TEAE Diarrhoea [1, 4]: 5 (16.1) n (%)
- TEAE Fatigue [1, 4]: 0 (0.0) n (%)
- TEAE Nausea [1, 4]: 1 (3.2) n (%)
- TEAE Neutropenia [1, 4]: 17 (54.8) n (%)
- TEAE Vomiting [1, 4]: 1 (3.2) n (%)
- TEAE Alopecia [1, 5]: 31 (46.2) n (%)
- TEAE Anaemia [1, 5]: 27 (40.2) n (%)
- TEAE Constipation [1, 5]: 18 (26.8) n (%)
- TEAE Decreased appetite [1, 5]: 18 (26.8) n (%)
- TEAE Diarrhoea [1, 5]: 40 (59.7) n (%)
- TEAE Fatigue [1, 5]: 27 (40.2) n (%)
- TEAE Nausea [1, 5]: 41 (61.1) n (%)
- TEAE Neutropenia [1, 5]: 41 (61.1) n (%)
- TEAE Vomiting [1, 5]: 32 (47.7) n (%)
- TEAE Alopecia [1, 6]: 0 (0.0) n (%)
- TEAE Anaemia [1, 6]: 7 (10.4) n (%)
- TEAE Constipation [1, 6]: 1 (1.4) n (%)
- TEAE Decreased appetite [1, 6]: 0 (0.0) n (%)
- TEAE Diarrhoea [1, 6]: 5 (7.4) n (%)
- TEAE Fatigue [1, 6]: 3 (4.4) n (%)
- TEAE Nausea [1, 6]: 2 (2.9) n (%)
- TEAE Neutropenia [1, 6]: 26 (38.8) n (%)
- TEAE Vomiting [1, 6]: 3 (4.4) n (%)
- TEAE Alopecia [1, 7]: 9 (36.0) n (%)
- TEAE Anaemia [1, 7]: 14 (56.0) n (%)
- TEAE Constipation [1, 7]: 10 (40.0) n (%)
- TEAE Decreased appetite [1, 7]: 13 (52.0) n (%)
- TEAE Diarrhoea [1, 7]: 16 (64.0) n (%)
- TEAE Fatigue [1, 7]: 17 (68.0) n (%)
- TEAE Nausea [1, 7]: 15 (60.0) n (%)
- TEAE Neutropenia [1, 7]: 20 (80.0) n (%)
- TEAE Vomiting [1, 7]: 12 (48.0) n (%)
- TEAE Alopecia [1, 8]: 0 (0.0) n (%)
- TEAE Anaemia [1, 8]: 2 (8.0) n (%)
- TEAE Constipation [1, 8]: 1 (4.0) n (%)
- TEAE Decreased appetite [1, 8]: 0 (0.0) n (%)
- TEAE Diarrhoea [1, 8]: 0 (0.0) n (%)
- TEAE Fatigue [1, 8]: 0 (0.0) n (%)
- TEAE Nausea [1, 8]: 1 (4.0) n (%)
- TEAE Neutropenia [1, 8]: 13 (52.0) n (%)
- TEAE Vomiting [1, 8]: 2 (8.0) n (%)
- TEAE Alopecia [1, 9]: 40 (43.5) n (%)
- TEAE Anaemia [1, 9]: 41 (44.6) n (%)
- TEAE Constipation [1, 9]: 28 (30.4) n (%)
- TEAE Decreased appetite [1, 9]: 31 (33.6) n (%)
- TEAE Diarrhoea [1, 9]: 56 (60.9) n (%)
- TEAE Fatigue [1, 9]: 44 (47.8) n (%)
- TEAE Nausea [1, 9]: 56 (60.9) n (%)
- TEAE Neutropenia [1, 9]: 61 (66.3) n (%)
- TEAE Vomiting [1, 9]: 44 (47.8) n (%)
- TEAE Alopecia [1, 10]: 0 (0.0) n (%)
- TEAE Anaemia [1, 10]: 9 (9.8) n (%)
- TEAE Decreased appetite [1, 10]: 0 (0.0) n (%)
- TEAE Diarrhoea [1, 10]: 5 (5.4) n (%)
- TEAE Fatigue [1, 10]: 3 (3.2) n (%)
- TEAE Nausea [1, 10]: 3 (3.2) n (%)
- TEAE Neutropenia [1, 10]: 39 (42.4) n (%)
- TEAE Vomiting [1, 10]: 5 (5.4) n (%)
- Grade 3 or 4 TEAE anaemia [1, 11]: 9.8%
- Grade 3 or 4 TEAE neutropenia [1, 11]: 42.4%
- Patients who discontinued veliparib due to TEAEs [1, 11]: 5.4%
- Patients with ≥1 grade 3 or 4 TEAEs [1, 11]: 67.4%
- Patients with ≥1 treatment-emergent serious AEs (SAEs) [1, 11]: 38.0%
- Serious AE PD [1, 11]: 2.2%
- Serious AE abdominal pain [1, 11]: 2.2%
- Serious AE dehydration [1, 11]: 2.2%
- Serious AE febrile neutropenia [1, 11]: 2.2%
- Serious AE intestinal obstruction [1, 11]: 2.2%
- Serious AE malignant neoplasm progression [1, 11]: 2.2%
- Serious AE nausea [1, 11]: 2.2%
- Serious AE pyrexia [1, 11]: 4.3%
- Serious AE vomiting [1, 11]: 3.3%
- TEAE alopecia, patients [1, 12]: 43.5%
- TEAE anaemia, patients [1, 12]: 44.6%
- TEAE diarrhoea, patients [1, 12]: 60.9%
- TEAE fatigue, patients [1, 12]: 47.8%
- TEAE nausea, patients [1, 12]: 60.9%
- TEAE neutropenia, patients [1, 12]: 66.3%
- TEAE vomiting, patients [1, 12]: 47.8%
- Patients who experienced one or more TEAEs ([1]; veliparib plus FOLFIRI, treated patients (92)): All treated patients
- Median time to disease progression (TTP) ([2]; expanded safety cohort, colorectal (N=6)): 195 days
- 6-month TTP rate ([2]; expanded safety cohort, colorectal cancer (n = 6), veliparib RP2D plus FOLFIRI): 60.0%
- Median time to disease progression (TTP) ([2]; expanded safety cohort, gastric (N=14)): 223 days
- 6-month TTP rate ([2]; expanded safety cohort, gastric cancer (n = 14), veliparib RP2D plus FOLFIRI): 53.8%
- Complete response (CR) ([2]; veliparib plus FOLFIRI): not achieved by any patients
- Patients with a partial response ([2]; veliparib plus FOLFIRI): Fifteen
- Objective response rate (ORR) ([2]; veliparib plus FOLFIRI, 85 patients with measurable lesions at baseline): 17.6%
- ORR (CR + PR) ([2]; veliparib plus FOLFIRI, Breast n = 8): 2 (25.0) (3.2–65.1) n (%) (95% CI)
- ORR (CR + PR) ([2]; veliparib plus FOLFIRI, Colorectal n = 9): 2 (22.2) (2.8–60.0) n (%) (95% CI)
- ORR (CR + PR) ([2]; veliparib plus FOLFIRI, Gastric n = 20): 3 (15.0) (3.2–37.9) n (%) (95% CI)
- ORR (CR + PR) ([2]; veliparib plus FOLFIRI, Other n = 27): 3 (11.1) (2.4–29.2) n (%) (95% CI)
- ORR (CR + PR) ([2]; veliparib plus FOLFIRI, Ovarian n = 7): 3 (42.9) (9.9–81.6) n (%) (95% CI)
- ORR (CR + PR) ([2]; veliparib plus FOLFIRI, Overall n = 85, measurable lesions at baseline): 15 (17.6) (10.2–27.4) n (%) (95% CI)
- ORR (CR + PR) ([2]; veliparib plus FOLFIRI, Pancreatic n = 14): 2 (14.3) (1.8–42.8) n (%) (95% CI)
- Median time to disease progression (TTP) ([2]; veliparib plus FOLFIRI, all dosed patients, colorectal (N=10)): 195 days
- Median time to disease progression (TTP) ([2]; veliparib plus FOLFIRI, all dosed patients, gastric (N=20)): 157 days
- Median time to disease progression (TTP) ([2]; veliparib plus FOLFIRI, all dosed patients, ovarian (N=9)): 361 days
- Objective response rate (ORR) ([2]; veliparib plus FOLFIRI, breast cancer): 25.0%
- 6-month TTP rate ([2]; veliparib plus FOLFIRI, breast cancer (n = 9)): 22.2%
- Objective response rate (ORR) ([2]; veliparib plus FOLFIRI, colorectal cancer): 22.2%
- 6-month TTP rate ([2]; veliparib plus FOLFIRI, colorectal cancer (n = 10)): 50.8%
- 6-month TTP rate ([2]; veliparib plus FOLFIRI, gastric cancer (n = 20)): 45.9%
- 6-month TTP rate ([2]; veliparib plus FOLFIRI, other cancers (n = 30)): 21.2%
- Objective response rate (ORR) ([2]; veliparib plus FOLFIRI, ovarian cancer (n = 7)): 42.9%
- 6-month TTP rate (probability of remaining progression-free for 6 months) ([2]; veliparib plus FOLFIRI, ovarian cancer (n = 9)): 65%
- Objective response rate (ORR) ([2]; veliparib plus FOLFIRI, pancreatic cancer): 14.3%
- 6-month TTP rate ([2]; veliparib plus FOLFIRI, pancreatic cancer (n = 14)): 26.8%
- Median duration of overall response (DOR) ([2]; veliparib plus FOLFIRI, patients who received irinotecan 150 mg/m^2): 560 days
- Response rates ([2]; veliparib plus FOLFIRI, previously treated patient population): over 15%
